{"source": "paper PMC5218480", "about": "(PLoS ONE, 2017)", "tested_on": "MV-4-11 cells", "test": "Gene expression microarray analysis (Affymetrix PrimeView) and GSEA", "format": "cell-based, human", "design": "RFU PODN (11730768_x_at) / Fold change /veh PODN (11730768_x_at) / RFU LINC00158 (11744669_a_at) / Fold change /veh LINC00158 (11744669_a_at) / RFU DUSP10 (11751237_a_at) / Fold change /veh DUSP10 (11751237_a_at) / RFU ID3 (11757404_x_at) / Fold change /veh ID3 (11757404_x_at) / RFU PLEKHG5 (11737974_s_at) / Fold change /veh PLEKHG5 (11737974_s_at) / RFU LRRC4B (11730491_at) / Fold change /veh LRRC4B (11730491_at) / RFU GIMAP4 (11747438_a_at) / Fold change /veh GIMAP4 (11747438_a_at) / RFU KRT8 (11758183_x_at) / Fold change /veh KRT8 (11758183_x_at) / RFU CNN1 (11734310_a_at) / Fold change /veh CNN1 (11734310_a_at) / RFU VPS37D (11726825_at) / Fold change /veh VPS37D (11726825_at) / RFU C10orf10 (11716522_x_at) / Fold change /veh C10orf10 (11716522_x_at) / RFU KIR2DL2 /// KIR2DL4 /// KIR2DL5A /// KIR2DL5B /// KIR2DS1 /// KIR2DS2 /// KIR2DS3 /// KIR2DS4 /// KIR3DL3 /// KIR3DL3 /// KIR3DS1 (11738374_at) / Fold change /veh KIR2DL2 /// KIR2DL4 /// KIR2DL5A /// KIR2DL5B /// KIR2DS1 /// KIR2DS2 /// KIR2DS3 /// KIR2DS4 /// KIR3DL3 /// KIR3DL3 /// KIR3DS1 (11738374_at) / RFU C1QL1 (11718748_at) / Fold change /veh C1QL1 (11718748_at) / RFU TMPRSS4 (11747572_a_at) / Fold change /veh TMPRSS4 (11747572_a_at) / RFU HAMP (11756126_x_at) / Fold change /veh HAMP (11756126_x_at) / RFU RNFT2 (11725882_a_at) / Fold change /veh RNFT2 (11725882_a_at) / RFU NR4A2 (11747474_a_at) / Fold change /veh NR4A2 (11747474_a_at) / RFU ABCC12 (11746883_a_at) / Fold change /veh ABCC12 (11746883_a_at) / RFU TMEM136 (11760407_x_at) / Fold change /veh TMEM136 (11760407_x_at) / RFU CLDN22 /// WWC2 (11732394_at) / Fold change /veh CLDN22 /// WWC2 (11732394_at) / RFU HLA-DPB1 (11760878_x_at) / Fold change /veh HLA-DPB1 (11760878_x_at) / RFU SPINT1 (11716480_a_at) / Fold change /veh SPINT1 (11716480_a_at) / RFU GAP43 (11754022_s_at) / Fold change /veh GAP43 (11754022_s_at) / RFU A4GNT (11735810_at) / Fold change /veh A4GNT (11735810_at) / RFU PRB3 (11715151_x_at) / Fold change /veh PRB3 (11715151_x_at) / RFU TUBB4B (11761932_at) / Fold change /veh TUBB4B (11761932_at) / RFU CAPN14 (11732068_a_at) / Fold change /veh CAPN14 (11732068_a_at) / RFU TMCC2 (11721928_a_at) / Fold change /veh TMCC2 (11721928_a_at) / RFU IRGQ (11745062_a_at) / Fold change /veh IRGQ (11745062_a_at) / RFU FAM174B (11720279_a_at) / Fold change /veh FAM174B (11720279_a_at) / RFU TMPRSS4 (11748680_a_at) / Fold change /veh TMPRSS4 (11748680_a_at) / RFU FAM212B (11763350_a_at) / Fold change /veh FAM212B (11763350_a_at) / RFU PLEKHG5 (11743358_a_at) / Fold change /veh PLEKHG5 (11743358_a_at) / RFU ZSCAN30 (11745921_a_at) / Fold change /veh ZSCAN30 (11745921_a_at) / RFU CMKLR1 (11741424_a_at) / Fold change /veh CMKLR1 (11741424_a_at) / RFU LOC101060620 /// MAPK8IP1 (11723275_at) / Fold change /veh LOC101060620 /// MAPK8IP1 (11723275_at) / RFU SPTSSB (11747773_x_at) / Fold change /veh SPTSSB (11747773_x_at) / RFU PRSS12 (11739890_at) / Fold change /veh PRSS12 (11739890_at) / RFU BIN1 (11741810_x_at) / Fold change /veh BIN1 (11741810_x_at) / RFU WNT11 (11732464_a_at) / Fold change /veh WNT11 (11732464_a_at) / RFU C10orf10 (11716521_a_at) / Fold change /veh C10orf10 (11716521_a_at) / RFU C5orf56 (11738089_at) / Fold change /veh C5orf56 (11738089_at) / RFU CYB561 (11721691_x_at) / Fold change /veh CYB561 (11721691_x_at) / RFU ANKRD19P (11752326_a_at) / Fold change /veh ANKRD19P (11752326_a_at) / RFU OR2T12 /// OR2T33 /// OR2T8 (11738714_s_at) / Fold change /veh OR2T12 /// OR2T33 /// OR2T8 (11738714_s_at) / RFU VCAN (11748164_a_at) / Fold change /veh VCAN (11748164_a_at) / RFU JSRP1 (11732532_at) / Fold change /veh JSRP1 (11732532_at) / RFU KRTAP10-11 (11738290_x_at) / Fold change /veh KRTAP10-11 (11738290_x_at) / RFU MYO3A (11730013_a_at) / Fold change /veh MYO3A (11730013_a_at) / RFU EBF3 (11725865_a_at) / Fold change /veh EBF3 (11725865_a_at) / RFU CAMK2N1 (11719241_x_at) / Fold change /veh CAMK2N1 (11719241_x_at) / RFU C5orf56 (11738088_a_at) / Fold change /veh C5orf56 (11738088_a_at) / RFU OLFML3 (11715873_a_at) / Fold change /veh OLFML3 (11715873_a_at) / RFU LOC100653217 /// NTM (11731650_a_at) / Fold change /veh LOC100653217 /// NTM (11731650_a_at) / RFU MAPK11 (11762145_a_at) / Fold change /veh MAPK11 (11762145_a_at) / RFU FIZ1 (11724087_x_at) / Fold change /veh FIZ1 (11724087_x_at) / RFU OASL (11726364_x_at) / Fold change /veh OASL (11726364_x_at) / RFU SOX15 (11748057_x_at) / Fold change /veh SOX15 (11748057_x_at) / RFU CD79A (11719716_a_at) / Fold change /veh CD79A (11719716_a_at) / RFU HIST1H1D (11736915_at) / Fold change /veh HIST1H1D (11736915_at) / RFU CASKIN2 (11723855_a_at) / Fold change /veh CASKIN2 (11723855_a_at) / RFU LOC730098 (11760151_x_at) / Fold change /veh LOC730098 (11760151_x_at) / RFU OR4N2 (11742367_at) / Fold change /veh OR4N2 (11742367_at) / RFU PRRT2 (11749266_a_at) / Fold change /veh PRRT2 (11749266_a_at) / RFU SNX32 (11753110_a_at) / Fold change /veh SNX32 (11753110_a_at) / RFU CDHR5 (11726645_a_at) / Fold change /veh CDHR5 (11726645_a_at) / RFU RCAN1 (11760418_a_at) / Fold change /veh RCAN1 (11760418_a_at) / RFU FAM167A (11723789_a_at) / Fold change /veh FAM167A (11723789_a_at) / RFU FAM26E (11764081_at) / Fold change /veh FAM26E (11764081_at) / RFU ISYNA1 (11749810_s_at) / Fold change /veh ISYNA1 (11749810_s_at) / RFU ACY1 (11761880_at) / Fold change /veh ACY1 (11761880_at) / RFU 11764098_at / Fold change /veh 11764098_at / RFU SAMD14 (11745864_x_at) / Fold change /veh SAMD14 (11745864_x_at) / RFU NPB (11741838_a_at) / Fold change /veh NPB (11741838_a_at) / RFU TMPRSS6 (11731388_a_at) / Fold change /veh TMPRSS6 (11731388_a_at) / RFU KRTAP10-2 (11738614_at) / Fold change /veh KRTAP10-2 (11738614_at) / RFU ARHGAP8 /// PRR5-ARHGAP8 (11727945_x_at) / Fold change /veh ARHGAP8 /// PRR5-ARHGAP8 (11727945_x_at) / RFU KRTAP5-7 /// NADSYN1 (11734609_at) / Fold change /veh KRTAP5-7 /// NADSYN1 (11734609_at) / RFU RASL12 (11751679_a_at) / Fold change /veh RASL12 (11751679_a_at) / RFU CDKN2B (11736163_a_at) / Fold change /veh CDKN2B (11736163_a_at) / RFU PRF1 (11729649_at) / Fold change /veh PRF1 (11729649_at) / RFU, ZNF638 /// ZNF638-IT1 / Fold change vs veh, ZNF638 /// ZNF638-IT1 / RFU, PANK3 / Fold change vs veh, PANK3 / RFU, SH3YL1 / Fold change vs veh, SH3YL1 / RFU, ZEB2 / Fold change vs veh, ZEB2 / RFU, NRIP1 / Fold change vs veh, NRIP1 / RFU, PTTG1IP / Fold change vs veh, PTTG1IP / RFU, CAPN2 / Fold change vs veh, CAPN2 / RFU, MED14 / Fold change vs veh, MED14 / RFU, SNORA58 / Fold change vs veh, SNORA58 / RFU, C1orf63 / Fold change vs veh, C1orf63 / RFU, LRRFIP1 / Fold change vs veh, LRRFIP1 / RFU, NDUFAF7 / Fold change vs veh, NDUFAF7 / RFU, SLC12A2 / Fold change vs veh, SLC12A2 / RFU, IBTK / Fold change vs veh, IBTK / RFU, ESF1 / Fold change vs veh, ESF1 / Fold change vs veh, TMEM50B / RFU, TAOK1 / Fold change vs veh, TAOK1 / RFU, ACBD3 / Fold change vs veh, ACBD3 / RFU, TMA16 / Fold change vs veh, TMA16 / RFU, RWDD3 / Fold change vs veh, RWDD3 / RFU, BCAT1 / Fold change vs veh, BCAT1 / RFU, EDEM3 / Fold change vs veh, EDEM3 / RFU, TMEM33 / Fold change vs veh, TMEM33 / RFU, WDR75 / Fold change vs veh, WDR75 / RFU, AHCTF1 / Fold change vs veh, AHCTF1 / RFU, TFRC / Fold change vs veh, TFRC / RFU, ZDHHC17 / Fold change vs veh, ZDHHC17 / RFU, NOM1 / Fold change vs veh, NOM1 / RFU, ARL8B / Fold change vs veh, ARL8B / RFU, ZBTB11 / Fold change vs veh, ZBTB11 / RFU, TAMM41 / Fold change vs veh, TAMM41 / RFU, KIAA1704 /// LOC100996395 / Fold change vs veh, KIAA1704 /// LOC100996395 / RFU, ING1 / Fold change vs veh, ING1 / RFU, TRMT61B / Fold change vs veh, TRMT61B / RFU, FUBP3 / Fold change vs veh, FUBP3 / RFU, TP53 / Fold change vs veh, TP53 / RFU, TNKS2 / Fold change vs veh, TNKS2 / RFU, ZFP14 / Fold change vs veh, ZFP14 / RFU, ACTR2 / Fold change vs veh, ACTR2 / RFU, PPP3R1 / Fold change vs veh, PPP3R1 / RFU, PIK3R1 / Fold change vs veh, PIK3R1 / RFU, HNRNPA1 / Fold change vs veh, HNRNPA1 / RFU, RNF170 / Fold change vs veh, RNF170 / RFU, ZNF28 / Fold change vs veh, ZNF28 / RFU, RNGTT / Fold change vs veh, RNGTT / RFU, OGT / Fold change vs veh, OGT / RFU, BRD1 / Fold change vs veh, BRD1 / RFU, MARS / Fold change vs veh, MARS / RFU, ZNF655 / Fold change vs veh, ZNF655 / RFU, FAHD1 / Fold change vs veh, FAHD1 / RFU, BDP1 / Fold change vs veh, BDP1 / RFU, LRRCC1 / Fold change vs veh, LRRCC1 / RFU, ARID1A / Fold change vs veh, ARID1A / RFU, ZNF146 / Fold change vs veh, ZNF146 / RFU, ZNF330 / Fold change vs veh, ZNF330 / RFU, GPN3 / Fold change vs veh, GPN3 / RFU, C9orf123 / Fold change vs veh, C9orf123 / RFU, N4BP2L2 / Fold change vs veh, N4BP2L2 / RFU, ARFIP1 / Fold change vs veh, ARFIP1 / RFU, FAM179B / Fold change vs veh, FAM179B / RFU, BCL10 / Fold change vs veh, BCL10 / RFU, UHRF1BP1L / Fold change vs veh, UHRF1BP1L / RFU, BET1 / Fold change vs veh, BET1 / RFU, CNOT2 / Fold change vs veh, CNOT2 / RFU, ZNF268 / Fold change vs veh, ZNF268 / Fold change vs veh, ZNF507 / RFU, DGCR2 / Fold change vs veh, DGCR2 / RFU, WDSUB1 / Fold change vs veh, WDSUB1 / Fold change vs veh, HSP90B1 /// MIR3652 / RFU, ADSS / Fold change vs veh, ADSS / RFU, GK / Fold change vs veh, GK / RFU, ZNF148 / Fold change vs veh, ZNF148 / RFU, TAF9 / Fold change vs veh, TAF9 / RFU, SLC1A5 / Fold change vs veh, SLC1A5 / RFU, SLMO2 / Fold change vs veh, SLMO2 / RFU, ABCC4 / Fold change vs veh, ABCC4 / RFU, LOC101060439 /// RAP1B / Fold change vs veh, LOC101060439 /// RAP1B / RFU, RFX7 / Fold change vs veh, RFX7 / RFU, GTPBP10 / Fold change vs veh, GTPBP10 / RFU, CNEP1R1 / Fold change vs veh, CNEP1R1 / RFU, BIVM-ERCC5 /// ERCC5 / Fold change vs veh, BIVM-ERCC5 /// ERCC5 / RFU, ILF3 / Fold change vs veh, ILF3 / RFU 11762660_at / Fold change /veh 11762660_at / RFU VCAN (11757783_s_at) / Fold change /veh VCAN (11757783_s_at) / RFU DDX43 (11728927_at) / Fold change /veh DDX43 (11728927_at) / RFU KRT8 (11758188_x_at) / Fold change /veh KRT8 (11758188_x_at) / RFU NKD1 (11759106_at) / Fold change /veh NKD1 (11759106_at) / RFU SRD5A1 (11742802_a_at) / Fold change /veh SRD5A1 (11742802_a_at) / RFU TPSAB1 /// TPSB2 (11721975_s_at) / Fold change /veh TPSAB1 /// TPSB2 (11721975_s_at) / RFU GSTM3 (11746129_a_at) / Fold change /veh GSTM3 (11746129_a_at) / RFU IL23R (11737362_x_at) / Fold change /veh IL23R (11737362_x_at) / RFU TMEM51 (11727254_a_at) / Fold change /veh TMEM51 (11727254_a_at) / RFU PIWIL2 (11732686_x_at) / Fold change /veh PIWIL2 (11732686_x_at) / RFU ORM1 (11744905_x_at) / Fold change /veh ORM1 (11744905_x_at) / RFU CCDC152 (11743942_at) / Fold change /veh CCDC152 (11743942_at) / RFU ECM1 (11717891_a_at) / Fold change /veh ECM1 (11717891_a_at) / RFU IL23R (11748794_a_at) / Fold change /veh IL23R (11748794_a_at) / RFU TNFAIP8L3 (11732012_x_at) / Fold change /veh TNFAIP8L3 (11732012_x_at) / RFU MBOAT4 (11741988_at) / Fold change /veh MBOAT4 (11741988_at) / RFU 11764193_at / Fold change /veh 11764193_at / RFU TMEM53 (11763286_at) / Fold change /veh TMEM53 (11763286_at) / RFU MAGEB2 (11727129_at) / Fold change /veh MAGEB2 (11727129_at) / RFU TMEM200A (11744735_a_at) / Fold change /veh TMEM200A (11744735_a_at) / RFU CCDC152 (11751479_a_at) / Fold change /veh CCDC152 (11751479_a_at) / RFU FAM211A (11726209_a_at) / Fold change /veh FAM211A (11726209_a_at) / RFU RGS16 (11746705_a_at) / Fold change /veh RGS16 (11746705_a_at) / RFU VCAN (11755009_s_at) / Fold change /veh VCAN (11755009_s_at) / RFU RHOB (11743442_s_at) / Fold change /veh RHOB (11743442_s_at) / RFU RGS16 (11720943_a_at) / Fold change /veh RGS16 (11720943_a_at) / RFU RGS16 (11720944_at) / Fold change /veh RGS16 (11720944_at) / RFU, VPS4B / Fold change vs veh, VPS4B / RFU, CREB1 / Fold change vs veh, CREB1 / RFU, DNAJC13 / Fold change vs veh, DNAJC13 / RFU, GNAQ / Fold change vs veh, GNAQ / RFU, CDK5R1 / Fold change vs veh, CDK5R1 / RFU, ZRANB3 / Fold change vs veh, ZRANB3 / RFU, CUL4A / Fold change vs veh, CUL4A / RFU, CCNY / Fold change vs veh, CCNY / RFU, UFL1 / Fold change vs veh, UFL1 / RFU, COG3 / Fold change vs veh, COG3 / RFU, DIAPH2 / Fold change vs veh, DIAPH2 / RFU, SKA2 / Fold change vs veh, SKA2 / RFU, AFF3 / Fold change vs veh, AFF3 / RFU, LMF1 / Fold change vs veh, LMF1 / RFU, IPO11 / Fold change vs veh, IPO11 / RFU, DFFB / Fold change vs veh, DFFB / RFU, FOXP1 / Fold change vs veh, FOXP1 / RFU, CARD8 / Fold change vs veh, CARD8 / RFU, STRN3 / Fold change vs veh, STRN3 / RFU, ADK / Fold change vs veh, ADK / RFU, RASSF2 / Fold change vs veh, RASSF2 / RFU, WIPF1 / Fold change vs veh, WIPF1 / RFU, LARP1B / Fold change vs veh, LARP1B / RFU, RASA1 / Fold change vs veh, RASA1 / RFU, RB1 / Fold change vs veh, RB1 / RFU, PPFIA1 / Fold change vs veh, PPFIA1 / RFU, MAT2A / Fold change vs veh, MAT2A / RFU, CCT5 / Fold change vs veh, CCT5 / RFU, WDR92 / Fold change vs veh, WDR92 / RFU, CUX1 / Fold change vs veh, CUX1 / RFU, TTC7A / Fold change vs veh, TTC7A / RFU, TMEM135 / Fold change vs veh, TMEM135 / RFU, DEPTOR / Fold change vs veh, DEPTOR / RFU, CPM / Fold change vs veh, CPM / RFU, DNAJB6 / Fold change vs veh, DNAJB6 / RFU, CACNA2D3 / Fold change vs veh, CACNA2D3 / RFU, DTX4 / Fold change vs veh, DTX4 / RFU, TFCP2 / Fold change vs veh, TFCP2 / RFU, GMCL1 /// GMCL1P1 / Fold change vs veh, GMCL1 /// GMCL1P1 / RFU, AEBP2 / Fold change vs veh, AEBP2 / RFU, SNHG1 /// SNORD22 /// SNORD25 /// SNORD26 /// SNORD27 /// SNORD28 /// SNORD29 /// SNORD31 / Fold change vs veh, SNHG1 /// SNORD22 /// SNORD25 /// SNORD26 /// SNORD27 /// SNORD28 /// SNORD29 /// SNORD31 / Fold change (Aza/veh), C12orf56 (ProbeSet 11735607_a_at) / Fold change (ACY-1035/veh), C12orf56 (ProbeSet 11735607_a_at) / Fold change (Aza/veh), FGFR1OP (ProbeSet 11751329_s_at) / Fold change (ACY-1035/veh), FGFR1OP (ProbeSet 11751329_s_at) / Fold change (Aza/veh), VPS36 (ProbeSet 11739960_a_at) / Fold change (ACY-1035/veh), VPS36 (ProbeSet 11739960_a_at) / RFU SYPL1 (11715823_x_at) / Fold change /veh SYPL1 (11715823_x_at) / RFU IGFBP7 (11715501_s_at) / Fold change /veh IGFBP7 (11715501_s_at) / RFU REEP3 (11722064_at) / Fold change /veh REEP3 (11722064_at) / RFU IGLL1 (11728026_x_at) / Fold change /veh IGLL1 (11728026_x_at): dose or concentration left out as unconfirmed", "conditions": "MV-4-11 cells, 48 hours", "data": [{"smiles": "Nc1ccc(-c2cccs2)cc1NC(=O)c1ccc2c(c1)cc(C1CC1)n2CCN1CCOCC1", "note": "[ACY-1035]", "values": [{"measurement": "Fold change /veh ACY1 (11761880_at)", "result": 1.19}]}]}
